Measurements as given in paper PMC6929706, “In vivo alpha-V beta-3 integrin expression in human aortic atherosclerosis” (Heart, 2019).
Read-outs that look alike come from different tables or passages of the source. Each block holds one substance with its values, some of them ahead of it.

Legend:
[1] = molecular target: αvβ3 integrin in thoracic aortic atheroma (Homo sapiens, UniProt P05106+P06756)
Experimental: (§1) All patients in the imaging cohort underwent PET-CT imaging of the thorax with a hybrid scanner (Biograph mCT, Siemens Medical Systems, Erlangen, Germany) at the Clinical Research Imaging Centre, University of Edinburgh. Subjects were administered a target dose of 230 MBq 18F-fluciclatide. An attenuation correction CT scan (non-enhanced 120 kV and 50 mA, 3 mm slices) was performed prior to PET acquisition. To define tracer pharmacodynamics and the optimum timing of scanning, dynamic PET imaging of the thorax was performed in the initial 20 patients in three-dimensional (3-D) mode using a single bed position for 70 min.
Kinetic analysis was performed on the dynamic PET studies to investigate the pharmacodynamics of 18F-fluciclatide uptake within atheroma. […] In all patients, static electrocardiogram-gated PET images were reconstructed in diastole (40–70 min postinjection, 50%–75% of the R-R interval, Ultra-HD, 2 iterations, 21 subsets, zoom ×2, 200 pixels). […] PET images were fused with the attenuation correction CT, and regions of interest drawn around the thoracic aorta on serial axial slices just beyond the discernible adventitial border. Aortic uptake was assessed in three regions: the ascending thoracic aorta (from the level of mid-right pulmonary artery up to the last slice where the aorta maintained its circular cross-sectional appearance), the descending thoracic aorta (the region extending from the tip of the diaphragm up to the last circular slice) and the aortic arch (the region of the aorta connecting the ascending and descending aorta). Within these regions, mean and maximum tracer activities were measured using standard uptake values (SUV; the decay corrected tissue concentration of the tracer divided by the injected dose per body weight, kBq/mL) and corrected for mean radiotracer blood pool activity to provide a mean of the TBRmax (mean TBRmax).[5 19 20] […] In a substudy of 10 randomly selected subjects, images were assessed independently by two experienced observers and the interobserver reproducibility of 18F-fluciclatide SUV and TBR measurements assessed.
Continuous data were tested for normality visually and with the D’Agostino-Pearson omnibus test. Continuous data were presented as median (IQR) and compared using Pearson’s or Spearman’s correlation or Wilcoxon signed-rank test as appropriate.

[2] = parameters: species or system human; conditions: in vivo
From the text: A total of 46 subjects underwent PET imaging with CT angiography (age 66±10 years, 74% male; table 1) following injection of 229 (IQR 217–237) […] 18F-fluciclatide. Of the 46 subjects recruited, 19 had suffered a recent MI (unstable cohort), and 27 had imaging evidence of aortic atherosclerosis on CT but no recent cardiovascular events (stable cohort: 6 with stable angina and 21 with subclinical disease who were asymptomatic with no prior cardiovascular events). […] The groups were well matched for gender (p=0.97) and body mass index (p=0.39), and were both characterised by high prevalence of atherosclerotic risk factors, with more smokers in the unstable group (p<0.001) and more patients with hypertension in the stable group (p=0.02).

[3] = molecular target: aortic atheroma (αvβ3 integrin) (Homo sapiens, UniProt P05106+P06756)
Sequence of aortic atheroma (αvβ3 integrin) (P06756 31-889 limits assumed): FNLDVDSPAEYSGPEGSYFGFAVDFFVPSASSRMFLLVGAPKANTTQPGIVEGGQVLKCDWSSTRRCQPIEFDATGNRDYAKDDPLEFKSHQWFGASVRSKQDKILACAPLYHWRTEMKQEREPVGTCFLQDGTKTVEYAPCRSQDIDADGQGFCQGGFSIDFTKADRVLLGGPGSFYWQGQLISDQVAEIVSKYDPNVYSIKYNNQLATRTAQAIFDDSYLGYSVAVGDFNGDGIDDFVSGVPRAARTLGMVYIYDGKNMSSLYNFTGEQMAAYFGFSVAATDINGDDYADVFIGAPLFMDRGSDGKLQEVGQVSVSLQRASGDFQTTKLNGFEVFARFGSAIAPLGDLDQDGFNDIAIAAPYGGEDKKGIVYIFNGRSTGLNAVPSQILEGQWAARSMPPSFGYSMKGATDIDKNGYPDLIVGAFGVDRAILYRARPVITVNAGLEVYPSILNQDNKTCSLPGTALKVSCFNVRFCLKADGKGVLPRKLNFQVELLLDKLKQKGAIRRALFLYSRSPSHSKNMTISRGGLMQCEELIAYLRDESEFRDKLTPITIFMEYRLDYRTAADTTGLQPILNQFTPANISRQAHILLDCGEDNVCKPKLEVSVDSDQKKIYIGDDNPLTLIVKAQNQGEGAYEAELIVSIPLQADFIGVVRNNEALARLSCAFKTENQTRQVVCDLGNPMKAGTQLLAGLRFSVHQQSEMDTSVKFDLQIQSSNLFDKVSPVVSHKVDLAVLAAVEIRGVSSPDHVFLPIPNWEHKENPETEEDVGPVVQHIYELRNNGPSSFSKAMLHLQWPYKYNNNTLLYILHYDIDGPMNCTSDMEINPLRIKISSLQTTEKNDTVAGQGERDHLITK
Sequence of aortic atheroma (αvβ3 integrin) (P06756 891-1048 partner limits assumed): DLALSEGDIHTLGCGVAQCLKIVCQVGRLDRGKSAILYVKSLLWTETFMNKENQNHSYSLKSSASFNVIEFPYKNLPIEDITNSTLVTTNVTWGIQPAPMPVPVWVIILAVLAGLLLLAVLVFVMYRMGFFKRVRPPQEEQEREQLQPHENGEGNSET
Sequence of aortic atheroma (αvβ3 integrin) (P05106 27-788): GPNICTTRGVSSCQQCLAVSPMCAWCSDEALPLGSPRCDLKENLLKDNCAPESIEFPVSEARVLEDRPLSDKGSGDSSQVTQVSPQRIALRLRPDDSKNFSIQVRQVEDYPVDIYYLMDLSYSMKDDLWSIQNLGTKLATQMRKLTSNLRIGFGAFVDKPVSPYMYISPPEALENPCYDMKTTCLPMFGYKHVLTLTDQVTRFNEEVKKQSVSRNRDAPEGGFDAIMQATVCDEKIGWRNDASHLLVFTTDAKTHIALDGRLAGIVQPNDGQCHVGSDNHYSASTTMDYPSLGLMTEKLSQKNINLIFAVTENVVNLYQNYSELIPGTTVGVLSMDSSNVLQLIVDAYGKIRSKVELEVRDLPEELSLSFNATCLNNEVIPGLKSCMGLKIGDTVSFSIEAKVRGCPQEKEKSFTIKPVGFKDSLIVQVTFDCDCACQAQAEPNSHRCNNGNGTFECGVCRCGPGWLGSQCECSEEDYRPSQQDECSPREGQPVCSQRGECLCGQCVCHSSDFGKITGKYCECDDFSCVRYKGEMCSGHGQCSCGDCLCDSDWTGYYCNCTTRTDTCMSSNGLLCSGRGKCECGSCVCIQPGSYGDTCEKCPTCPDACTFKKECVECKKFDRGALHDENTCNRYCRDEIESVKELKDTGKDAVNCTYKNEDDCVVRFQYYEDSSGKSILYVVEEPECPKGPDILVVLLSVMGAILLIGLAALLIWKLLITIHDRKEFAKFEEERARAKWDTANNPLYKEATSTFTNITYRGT
Experimental: as §1
Kinetic analysis was performed on the dynamic PET studies to investigate the pharmacodynamics of 18F-fluciclatide uptake within atheroma. […] In all patients, static electrocardiogram-gated PET images were reconstructed in diastole (40–70 min postinjection, 50%–75% of the R-R interval, Ultra-HD, 2 iterations, 21 subsets, zoom ×2, 200 pixels). Images were analysed by experienced observers blinded to the demographic data (WJ, AV) using an OsiriX workstation (OsiriX V.6.0 64-bit; OsiriX Imaging Software, Geneva, Switzerland). PET images were fused with the attenuation correction CT, and regions of interest drawn around the thoracic aorta on serial axial slices just beyond the discernible adventitial border. Aortic uptake was assessed in three regions: the ascending thoracic aorta (from the level of mid-right pulmonary artery up to the last slice where the aorta maintained its circular cross-sectional appearance), the descending thoracic aorta (the region extending from the tip of the diaphragm up to the last circular slice) and the aortic arch (the region of the aorta connecting the ascending and descending aorta). Within these regions, mean and maximum tracer activities were measured using standard uptake values (SUV; the decay corrected tissue concentration of the tracer divided by the injected dose per body weight, kBq/mL) and corrected for mean radiotracer blood pool activity to provide a mean of the TBRmax (mean TBRmax).[5 19 20] […]

[4] = molecular target: T1, αvβ3 integrin receptors (Homo sapiens, UniProt P05106+P06756); experiment: 18F-fluciclatide autoradiography of carotid endarterectomy sections; assay type: binding
T1 construct: from tissue; host or cells: human carotid endarterectomy specimens (frozen sections)
T1 sequence (P06756 31-889 limits assumed): as the sequence (P06756 31-889 limits assumed) above
T1 sequence (P06756 891-1048 partner limits assumed): as the sequence (P06756 891-1048 partner limits assumed) above
T1 sequence (P05106 27-788): as the sequence (P05106 27-788) above
Experimental: Carotid endarterectomy specimens (online supplementary data) were fresh frozen and sectioned in cryosection medium. Both atheromatous and non-atheromatous segments were fixed, stained with H&E and examined by immunohistochemistry for smooth muscle actin, CD31, CD68 and αvβ3 integrin receptor expression before digital image capture (Axioscan .Z1, Zeiss, UK). Image analysis was performed on ImageJ32 software (National Institutes of Health, Bethesda, Maryland, USA). Staining was expressed as a percentage of the total plaque area and with an object size set threshold applied at 20×10 pixels, to limit counting to cell-sized objects. The density of cell staining in the endarterectomy tissue was expressed as cells per mm^2.[18]
Autoradiography was performed to identify the precise localisation of 18F-fluciclatide binding in atherosclerotic tissue. Carotid sections were bathed in a solution of 18F-fluciclatide (1 kBq/mL) for 60 min and rinsed with phosphate buffer solution. To rule out non-specific radiotracer uptake, an un-labelled highly concentrated solution of fluciclatide was added to bind competitively with the αvβ3 integrin receptors. 18F-Fluciclatide binding was imaged using a FujiFilm FLA-5100 Fluorescent Image Analyser (Raytek Scientific, Sheffield, UK). […]
antibody, clone LM609 (Millipore) for 30 min at room temperature. After washing, the sections were incubated with Envision Flex (DAKO, K5007) for 30 min at room temperature, followed by incubation with diaminobenzamine (Sigma) for 10 min. The slides were finally counterstained with hematoxylin and digitally imaged (Axioscan.Z1, Zeiss, UK).
Clinical PET systems have limited resolution. To gain more detailed information about the precise localization of 18F-fluciclatide binding in atherosclerotic tissue, we undertook autoradiography. The 20 μm frozen sections adjacent to those used for immunohistochemical analysis were warmed to room-temperature and bathed in a solution of 18F-fluciclatide at a concentration close to in vivo imaging concentrations (1 kBq/mL) for 60 minutes and then rinsed with phosphate buffer solution. An unlabeled highly concentrated solution of fluciclatide was added to selected slides in order to competitively bind to αvβ3 to assess for non-specific tracer uptake. A freshly blanked phosphor screen was then placed over the slides and an overnight exposure undertaken. The screen was read using a FujiFilm FLA-5100 Fluorescent Image Analyser (Raytek Scientific Limited, Sheffield, UK). Sections were then manually registered and examined for co-localization with histological markers of atherosclerotic disease

Sequence of αvβ3 integrin in thoracic aortic atheroma (P06756 31-889 limits assumed): as the sequence (P06756 31-889 limits assumed) above
Sequence of αvβ3 integrin in thoracic aortic atheroma (P06756 891-1048 partner limits assumed): as the sequence (P06756 891-1048 partner limits assumed) above
Sequence of αvβ3 integrin in thoracic aortic atheroma (P05106 27-788): as the sequence (P05106 27-788) above

TBRmax range in aortic atheroma ([1]; 40–70 min postinjection): 1.08–1.68
Total aortic uptake (mean TBRmax), current smokers ([1]; All patients, median (IQR)): 1.32
Total aortic uptake (mean TBRmax), not current smokers ([1]; All patients, median (IQR)): 1.29 (1.19–1.39)
Total aortic uptake (mean TBRmax), with established ischaemic heart disease ([1]; All patients, median (IQR)): 1.34 (1.22–1.42)
Total aortic uptake (mean TBRmax), with hypercholesterolaemia ([1]; All patients, median (IQR)): 1.34 (1.21–1.42)
Total aortic uptake (mean TBRmax), with hypertension ([1]; All patients, median (IQR)): 1.33 (1.19–1.39)
Total aortic uptake (mean TBRmax), without diabetes mellitus ([1]; All patients, median (IQR)): 1.29 (1.19–1.38)
Total aortic uptake (mean TBRmax), without established ischaemic heart disease ([1]; All patients, median (IQR)): 1.25 (1.19–1.35)
Total aortic uptake (mean TBRmax), without hypercholesterolaemia ([1]; All patients, median (IQR)): 1.27 (1.19–1.34)
Total aortic uptake (mean TBRmax), without hypertension ([1]; All patients, median (IQR)): 1.29 (1.20–1.40)
Total aortic uptake (mean TBRmax), with diabetes mellitus ([1]; Stable cohort, median (IQR)): 1.37 (1.28–1.58)
Total aortic uptake (mean TBRmax), with established ischaemic heart disease ([1]; Stable cohort, median (IQR)): 1.37 (1.37–1.42)
Total aortic uptake (mean TBRmax), with hypercholesterolaemia ([1]; Stable cohort, median (IQR)): 1.36
Total aortic uptake (mean TBRmax), with hypertension ([1]; Stable cohort, median (IQR)): 1.27 (1.21–1.38)
Total aortic uptake (mean TBRmax), without diabetes mellitus ([1]; Stable cohort, median (IQR)): 1.29 (1.19–1.37)
Total aortic uptake (mean TBRmax), without hypertension ([1]; Stable cohort, median (IQR)): 1.33 (1.19–1.38)
Aortic Arch (mean TBRmax) ([1]; Unstable atherosclerosis (n=19, recent MI), median (IQR)): 1.29
TBRmax on standard analysis, subjects without visible uptake on Patlak analysis ([1]; comparison p=0.08): 1.19±0.03
TBRmax on standard analysis, subjects with uptake present on Patlak analysis ([1]; n=7): 1.32±0.05
Average total radiation dose per participant [2]: 15 mSv
Nature of ligand-receptor binding by Patlak modelling ([3]; 2-tissue irreversible Patlak model, t* 20 min, over the selected acquisition time): irreversible ligand-receptor binding
Blood pool clearance half-life ([3]; human, in vivo, iv): about 10 min
Time at which activity within aortic atheroma reaches plateau ([3]; in vivo): 40 to 70 min
Non-specific binding on autoradiography ([4]; carotid atheroma, ex vivo): no evidence of non-specific binding
Substance: 18F-fluciclatide
Adverse events following administration [2]: No adverse events were reported
18F-fluciclatide uptake in regions of carotid endarterectomy specimen without visible atheroma ([4]; ex vivo autoradiography, 1 kBq/mL, 60 min): did not demonstrate 18F-fluciclatide uptake
18F-fluciclatide binding in carotid plaque on autoradiography ([4]; ex vivo carotid sections bathed in 1 kBq/mL for 60 min, atheromatous regions): focal 18F-fluciclatide binding in regions of advanced atherosclerosis

Blocking of 18F-fluciclatide binding by un-labelled fluciclatide ([4]; un-labelled highly concentrated solution added to compete at αvβ3): effectively blocked
Substance: fluciclatide [reference compound]
